Test results taken from a melting point compilation (Tetko et al.).

melting point [°C] | Structure (SMILES)
197 to 199 | O=c1c(Oc2ccccc2)coc2cc(O)ccc12
213 to 215 | O=C(O)c1cc(C2CC2)nc2onc(-c3ccccc3)c12
272 to 274 | Nc1ccc(C(=O)Nc2ccc3cn[nH]c3c2)cc1
141 to 143 | O=C(O)c1ccccc1C(=O)c1cccs1
87 to 89 | CCOC(=O)c1cnc2c(OC)ccc(OC)c2c1Cl
96 to 98 | O=Cc1ccc(OCc2ccccc2)c(Br)c1
190 to 192 | Cc1ccc(Cn2ncc3c(C(=O)O)cc(C)nc32)cc1
194 to 196 | CCS(=O)(=O)NCc1ccc(C(=O)O)cc1
159 to 161 | CCN(CC)S(=O)(=O)c1cc(C(=O)O)ccc1F
226 to 228 | O=C(O)Cc1ccc(NC(=O)c2ccccc2I)cc1
130 to 135 | O=C(O)C1CC(=O)N(c2ccccc2F)C1 (stereo not drawn)
137 to 139 | Nc1cccc(-c2cc[nH]n2)c1
113 to 115 | Nc1nc(-c2cccc(F)c2)cs1
223 to 225 | Nc1ccc(S(=O)(=O)Nc2ccc(Cl)c(Cl)c2)cc1
50 to 52 | CCNC(c1cccnc1)c1ccc2c(c1)CCO2 (stereo not drawn)
95 to 97 | Cc1cccc(NS(=O)(=O)c2ccc(C)c(N)c2)c1
145 to 147 | Cc1ccc(-n2nc(C)c(NC(=O)OCC(F)(F)F)c2C)cc1
209 to 211 | COCCNc1c(N)n(Cc2ccccc2)c(=O)[nH]c1=O
88 to 90 | COc1cc(NC(=O)c2ccco2)c(C(=O)O)cc1OC
149 to 151 | Nc1ccc(N2CCOC2=O)cc1
104 to 106 | Nc1ccc(-c2ncco2)cc1
206 to 208 | CC(C)(C)c1ccc(C=CC(=O)O)cc1
211 to 213 | O=C(O)c1cc(C2CC2)nc2onc(-c3ccco3)c12
165 to 167 | COc1ccc(C(=O)CCC(=O)O)c(Cl)c1
169 to 171 | O=C(O)CNC(=O)NCc1ccc(F)cc1

melting point [°C] | Structure (SMILES)
157 to 159 | Cc1ccc(CNC(=O)C2CCNCC2)cc1
68 to 70 | O=C(Cc1ccccc1Cl)c1ccccc1
144 to 146 | Cc1ccc(N)c2cccnc12
152 to 154 | CCOC(=O)C1=C(CC)Nc2ccccc2N=C1N
150 to 152 | COc1ccccc1NS(=O)(=O)c1ccc(N2CCOCC2)c(N)c1
151 to 153 | COc1cccc(NC(=O)C=CC(=O)O)c1
89 to 91 | Nc1ccc(NCc2ccccn2)cc1
225 to 228 | O=C(O)c1ccc(S(=O)(=O)Nc2ccccc2)cc1
177 to 179 | COc1ccc(OCc2ccccn2)c(/C=C/C(=O)O)c1
204 to 206 | COCCNc1ccc([N+](=O)[O-])cc1C(=O)O
201 to 203 | O=C(O)/C=C/c1ccccn1
79 to 81 | CCN(CC)S(=O)(=O)c1ccc(C(=O)CBr)cc1
63 to 65 | COC(=O)c1ccc(Cl)cc1S(=O)(=O)Cl
171 to 173 | COc1ccc(NS(=O)(=O)c2ccc(N)cc2)cc1OC
135 to 137 | O=C(O)Cc1ccc(S(=O)(=O)CC(F)F)cc1
145 to 147 | CCOc1ccc(NS(=O)(=O)c2ccc(N)cc2)cc1
77 to 79 | CCOc1cc(N)ccc1OC
190 to 192 | N#Cc1cc(-c2ccccc2)sc1N
180 to 182 | O=C(O)c1cc(N/N=C/c2ccccc2Br)ccc1Cl
62 to 64 | O=CCCc1nc2ccccc2o1
219 to 221 | CC(=O)c1ccc(-c2ccc(C(=O)O)o2)cc1
57 to 59 | ClCc1cnc(-c2ccccc2)s1
99 to 101 | CC(C)c1ccc(C(=O)O)c(C(C)C)c1
189 to 191 | O=c1[nH]c(-c2cccc(Oc3ccccc3)c2)no1
87 to 89 | COC(=O)c1cc(N)c(Br)cc1F

melting point [°C] | Structure (SMILES)
167 to 169 | CS(=O)(=O)N1CC(C(=O)O)Oc2ccccc21 (stereo not drawn)
85 to 87 | O=C(O)CCSc1ccc(Cl)cc1
156 to 158 | Cc1c(C(=O)C(=O)O)sc2ccccc12
257 to 259 | O=c1[nH]c2ccccc2c(=O)n1CCO
352 to 354 | Nc1ccc(-c2nc3ccccc3[nH]2)cn1
223 to 225 | Cc1cc(NC(=O)c2ccccc2Cl)sc1C(=O)O
259 to 261 | COc1ccc(-c2nnn(CC(=O)O)n2)cc1OC
125 to 127 | COc1cc(C2(C(=O)O)CCC2)ccc1C
126 to 128 | Cc1cc(Sc2ncccn2)ccc1N
142 to 144 | COc1ccc(-c2ccc(CCC(=O)O)o2)cc1
110 to 112 | CC(C)CCOc1ccc(C2(C)NC(=O)NC2=O)cc1 (stereo not drawn)
190 to 192 | Nc1ccc(OCC(F)(F)F)c(C(=O)O)c1
224 to 226 | O=C(O)COc1ccc2cc(Br)ccc2c1
67 to 69 | CC(C)C(Oc1ccc(F)cc1F)C(=O)O (stereo not drawn)
165 to 167 | O=C(CCl)N1N=C(c2cc3ccccc3o2)CC1c1ccco1 (stereo not drawn)
254 to 256 | Cn1c(C(F)(F)F)nc2cc(C(=O)O)ccc21
164 to 166 | Cc1cnn(-c2ccc(C(N)=O)cc2N)c1
58 to 60 | COc1ccc(C(N)c2ccccc2OC)cc1 (stereo not drawn)
120 to 122 | Nc1cccc(OCC(=O)Nc2ccccc2)c1
306 to 308 | Cc1ccc(/C=C/c2cc(C(=O)O)c3cc(Br)ccc3n2)cc1
156 to 158 | Cn1cc(C=O)c(-c2ccc(C#N)cc2)n1
182 to 184 | N#Cc1ccccc1OCC(=O)O
209 to 211 | O=C(O)c1c[nH]c2cccc(F)c12
113 to 115 | Nc1ccc2oc(CO)nc2c1
229 to 231 | Cc1ccc(S(=O)(=O)NCCCN(C)C)cc1C(=O)O

More lines, now with the values behind:

Structure (SMILES) | melting point [°C]
COC(=O)c1cc(S(=O)(=O)Cl)c(Br)cc1F | 105 to 107
O=C(O)c1sccc1S(=O)(=O)N1CCOCC1 | 189 to 191
CC(C)CC(C(=O)O)N1C(=O)C2CC=CCC2C1=O (stereo not drawn) | 135 to 137
Cn1ccnc(Cl)c1=O | 118 to 120
NC(Cn1ccccc1=O)=NO | 211 to 213
COC(=O)c1cc2c(F)cc(Br)cc2[nH]1 | 190 to 192
O=C(O)CNCCO | 184 to 186
Cc1ccccc1Nc1nnc(S)s1 | 230 to 232
CC(C)C(Cl)C(=O)O (stereo not drawn) | 33 to 35
O=C(O)C1CCCN(C(=O)c2ccncc2)C1 (stereo not drawn) | 258 to 260
O=C1CC2(CCCCC2)CC(=O)O1 | 210 to 214
CC(C)C(Br)C(=O)Nc1ccccc1Cl (stereo not drawn) | 114 to 116
O=C(O)c1cccnc1SC(F)(F)F | 162 to 164
CC1=NNC(=O)C1CCN (stereo not drawn) | 229 to 231
O=[N+]([O-])c1cccc(F)c1S(=O)(=O)Cl | 89 to 91
O=C(O)CCCS(=O)(=O)N1CCCC1 | 130 to 132
CC(C)(C)c1ccc2oc(N)nc2c1 | 146 to 148
Cc1nc([N+](=O)[O-])cn1CC(=O)O | 244 to 246
CN(C)C(C(=O)O)c1cccnc1 (stereo not drawn) | 184 to 186
O=C(O)CC1=NNC(=O)C1 | 195 to 197
CN(C)C=C1C(=O)CCC1=O | 89 to 91
O=C(O)Cc1csc(N2CCNC2=O)n1 | 179 to 181
CCOC(=O)c1c(CCCO)cnc2cc(C)nn12 | 76 to 78

Structure (SMILES) | melting point [°C]
C#CCNC(=O)Nc1ccccc1F | 134 to 136
CC(C#N)NC(=O)OC(C)(C)C (stereo not drawn) | 94 to 96
CCOC(=O)CNC(=O)NCC(=O)OCC | 146 to 148
O=C(O)C1(Cc2ccccc2)CC2CCC1C2 (stereo not drawn) | 89 to 91
O=C1C(Br)CCN1c1ccc(C(F)(F)F)cc1 (stereo not drawn) | 63 to 65
ClCc1nnc(-c2cc3c(s2)CCCC3)o1 | 107 to 109
N#Cc1cccc(OCC(F)F)n1 | 49 to 51
COc1ccc(CN2CCNCC2)cc1OC | 27 to 40
Nn1c(S)nnc1-c1ccc(Cl)cc1Cl | 90 to 92
Nc1ccc(Sc2nncs2)c(Cl)c1 | 112 to 114
CCc1cccc(CC)c1Nc1nnc(S)s1 | 165 to 167
CC(C)c1nnc(S)n1C | 139 to 141
CN(C)c1ccc(C#N)cn1 | 64 to 66
NCC1CC(O)CN1Cc1ccccc1 (stereo not drawn) | 54 to 56
Sc1nc2cc(Cl)cc(Cl)c2[nH]1 | 376 to 378
Nc1nnc2ccc(Cl)nn12 | 274 to 276
Nc1cc(Br)ccc1O | 127 to 129
CNS(=O)(=O)c1ccccc1CN | 115 to 117
CNS(=O)(=O)N1CCc2ccccc2C1 | 88 to 90
N#Cc1cccnc1N1CCC(C(N)=O)CC1 | 177 to 179
O=C(O)c1ccn[nH]1 | 212 to 216
CC(C)(C)c1nccc(=O)[nH]1 | 205 to 207
O=C(O)c1nc(Cl)cnc1Br | 99 to 101

Structure (SMILES) | melting point [°C]
Nc1[nH]ncc1[N+](=O)[O-] | 237 to 239
COc1nc(C)cc(=O)[nH]1 | 199 to 201
O=C(O)C=C1CCCCC1 | 90 to 92
Nc1nc(=O)c2ccccc2s1 | 274 to 276
O=C(Nc1ccc2c(c1)OCCO2)OCC(F)(F)F | 103 to 105
N#CCC(=O)NC1CCCCC1 | 132 to 134
N#Cc1cc(C(F)(F)F)ccc1-n1cncn1 | 114 to 116
O=C1CCc2cc(Cl)c(S(=O)(=O)Cl)cc2N1 | 207 to 209
CC(Cl)C1CC(c2ccccc2)=NO1 (stereo not drawn) | 59 to 61
CC1CCC(CC(=O)O)CC1 (stereo not drawn) | 58 to 60
Cc1cc(N)nc(C(C)C)n1 | 196 to 198
O=C1N(Cc2ccccc2)CCN1S(=O)(=O)Cl | 112 to 114
CCCN1CCCC1C(=O)O (stereo not drawn) | 83 to 85
Nc1ncc(Cc2ccccc2Cl)s1 | 97 to 99
O=C1CC2(CCCCC2)Oc2cc(O)ccc21 | 169 to 171
Cc1ccc(O)c(C(=O)N2CCSCC2)c1 | 155 to 157
CCOc1ccc(C#N)cn1 | 97 to 99
O=S1(=O)CCCN1c1cccc(Cl)c1 | 85 to 87
CCc1nsc(S)n1 | 144 to 146
Cc1nc(CC(N)=NO)cs1 | 139 to 141
CCOC(=O)c1ccc(S(N)(=O)=O)nc1 | 114 to 116
O=C1C(Br)CCN1c1ccccc1F (stereo not drawn) | 76 to 78
